Source: patent US20240400589A1, “4-AMINOPHENYLPHOSPHO[…] FOR BLOCKING C-REACTIVE PROTEIN” (Pentracor GmbH, priority 2021, published 2024)
Read-outs that look alike come from different tables or passages of the source. Where a SMILES comes first, the peptide text is derived from it. The star is where a group is joined. X1 = C[N+](C)(C)CCOP(=O)([O-])Oc1ccc(N*)cc1

How the values were obtained:
[1] = molecular target: T1, CRP (CRP-containing human plasma) (Homo sapiens, UniProt P02741); test: Inhibition of CRP binding to a plate-coated BSA-APPC construct
T1 construct: from tissue; host or cells: human plasma
T1 sequence (P02741 19-224): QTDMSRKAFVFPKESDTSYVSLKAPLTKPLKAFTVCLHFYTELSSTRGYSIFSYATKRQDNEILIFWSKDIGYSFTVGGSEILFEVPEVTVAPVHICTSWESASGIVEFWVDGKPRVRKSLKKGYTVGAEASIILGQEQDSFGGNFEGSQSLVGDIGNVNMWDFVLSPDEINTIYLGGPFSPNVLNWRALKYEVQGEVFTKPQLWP
Experimental: A microtiter plate was coated with 100 μg/mL of a BSA-APPC construct, which binds CRP in a calcium-dependent manner, for 1 hour at room temperature (coating buffer: 0.1 M NaHCO3). Subsequently, 4 washes with 400 μl binding buffer (0.1 M Tris, 0.2 M NaCl, 2 mM CaCl2)) and non-specific binding sites were saturated with block solution (1% casein, 0.9% NaCl, 0.001% thiomersal) for 1 h at room temperature or overnight at 2-8° C.
Afterwards, the block solution was removed and the samples were applied in binding buffer. CRP-containing human plasma was diluted to 50 ng/mL CRP and applied either pure or together with different concentrations (0.25-3 mM) of the various inhibitors 1, 4, 5 and APPC and incubated for 1.5 h at room temperature with horizontal shaking (600 rpm). The plate was then washed again as described above.
After washing, 100 μL of a POD-labelled rabbit anti-huCRP antibody (final concentration: 25 ng/mL) in calcium-containing block solution (final concentration of calcium 4 mM) was added and the plate was incubated for 1.5 h at room temperature with shaking.
The plate was then washed again as described above. Development was carried out by adding 100 μl substrate buffer (0.2 M citric acid, 0.01% H2O2, 100 μg/mL TMB). The colour reaction was stopped by adding 50 μL of 1 M H2SO4 and the absorbance was measured at 450 nm. The absorbance at 655 nm (turbidity) was subtracted as background.
For the determination of inhibition, the OD of the CRP with inhibitor was normalised to the OD of the CRP without inhibitor:
The relative OD was then plotted against the concentration of stabilised APPC constructs in the batch. Only APPC was used as a comparative sample. It is clear that constructs 1 and 5 or 3 and APPC show an inhibition curve that is identical within the measurement uncertainty. […] For APPC/3, the corresponding concentration is 0.7±0.06 mmol/L. Thus, all stabilised APPC constructs show a good inhibition capacity.

[2] = molecular target: T2, huCRP (Homo sapiens, UniProt P02741); test: ELISA: binding of free CRP and free biotin-D-Glu(APPC)-NH2 in solution, complex captured on streptavidin plates; settings: for Optical Density (OD): mean of duplicates
T2 sequence (P02741 19-224): T1 sequence (P02741 19-224)
Experimental: CRP and compound 2 were incubated in a reaction vessel for 1 h at room temperature for complexation. The final concentrations were 10 μg/ml CRP (MW approx. 125 KD) and 2 μg/ml compound 2 (MW approx. 1 KD). The solution was then added to streptavidin-coated microtiter plates (MTP) at the dilution levels indicated in Tab. 2 at […] each and incubated with a block solution (Roche) for 30 min at room temperature. The MTPs were then washed 3 times. Using the in house monoclonal antibody “DH7” specific for huCRP and a peroxidase-conjugated secondary antibody (anti-mouse) as well as the substrate TMB, the huCRP previously bound to compound 2 was detected.

[3] = molecular target: T2, huCRP; test: ELISA: binding of CRP to solid phase-fixed biotin-D-Glu(APPC)-NH2 on streptavidin-coated microtiter plates; settings: for Optical Density (OD): mean of duplicates
Experimental: Streptavidin-coated microtiter plates were incubated with a solution containing biotin-D-Glu(APPC)—NH2) (2) and then washed with phosphate buffer (PBS). The reactive parts of the MTP surface were then blocked with BSA solution (a standard procedure). CRP was then added in a concentration range of 31-500 ng/ml and incubated (see table below). After renewed washing, the bound CRP was detected using a murine monoclonal antibody (DH7) against CRP and a secondary, POD-conjugated anti-mouse antibody, followed by substrate development

[4] = 50 ng/mL CRP from human plasma, inhibitor 0.25-3 mM, BSA-APPC coated plate, read-out: 50% inhibitor concentration (IC50)

C[N+](C)(C)CCOP(=O)([O-])Oc1ccc(N)cc1 [APPC, 4-aminophenylphosphocholine, reference compound]
IC50 [1, 4]: 700 ± 60 µM

C[N+](C)(C)CCOP(=O)([O-])Oc1ccc(NC(=O)CC[C@@H](N)C(N)=O)cc1 [Compound 1, D-Glu(APPC)—NH2]
IC50 [1, 4]: 1600 ± 100 µM

C[N+](C)(C)CCOP(=O)([O-])Oc1ccc(NC(=O)CC[C@@H](NC(=O)CCCC[C@@H]2SC[C@@H]3NC(=O)N[C@@H]32)C(N)=O)cc1 [Compound 2, Biotin-D-Glu(APPC)—NH2]
Optical Density (OD) ([2]; complex dilution 1:20, 10 μg/ml CRP + 2 μg/ml compound 2): 2.685 | Optical Density (OD) ([2]; complex dilution 1:40): 2.219 | Optical Density (OD) ([2]; complex dilution 1:80): 1.801 | Optical Density (OD) ([2]; complex dilution 1:160): 1.242 | Optical Density (OD) ([2]; complex dilution 1:320): 0.875 | Optical Density (OD) ([2]; complex dilution 1:640): 0.548 | Optical Density (OD) ([2]; complex dilution 1:1280): 0.381 | Binding of CRP in solution (dilution series, FIG. 2) ([2]; free CRP and free compound, 1 h room temperature): binds CRP in solution | Optical Density (OD) ([3]; CRP 31 ng/ml): 1.061 | Optical Density (OD) ([3]; CRP 62.5 ng/ml): 1.512 | Optical Density (OD) ([3]; CRP 125 ng/ml): 2.081 | Optical Density (OD) ([3]; CRP 250 ng/ml): 2.627 | Optical Density (OD) ([3]; CRP 500 ng/ml): 3.242 | Binding to CRP (CRP binding curve, FIG. 1) ([3]; solid phase-fixed compound): binds to CRP

CC(=O)N1CCC[C@H]1C(=O)N[C@@H](C)C(=O)N[C@@H](CO)C(=O)N[C@@H](CCC(=O)Nc1ccc(OP(=O)([O-])OCC[N+](C)(C)C)cc1)C(=O)N1CCC[C@H]1C(=O)N[C@@H](C)C(=O)N[C@@H](CO)C(N)=O [Compound 5] (Ac-PASE(X1)PAS-NH2)
IC50 [1]: 1600 ± 100 µM
